# Results: US4778801A, “Isoindolinone derivatives, production and use thereof” (Takeda Chemical Industries, Ltd., priority 1984, dated 1988)
# Experiments:
# [1] = test system: male rat (SD/JCL); test: antianxiety activity, anticonflict test (Vogel et al.); type: in vivo; conditions: po; orally administered, male rat, 30, 60 or 180 minutes after administration; read-out: Antianxiety activity MED
# Protocol: The antianxiety activity measurement was performed in accordance with Vogel et al. [Psychopharmacologia, 21, 1 (1970)] as follows: An apparatus comprising a large clear box with a stainless steel grid floor and a smaller opaque dark box provided with a drinking tube was arranged such that a rat placed therein could receive, on the sole, electric shocks through the grid floor following each twentieth lick. The test compound was orally administered to each male rat (SD/JCL) deprived of water for 48 hours prior to the test, which rat was then, 30, 60 or 180 minutes after administration, placed in the apparatus mentioned above and the number of licks was recorded over 3 minutes. The increase in the number of licks as compared with a physiological saline group was determined and taken as a measure of antianxiety potency, and the minimum effective dose determined accordingly.
# [2] = test system: rats; test: muscle relaxant activity, rotating rod; type: in vivo; conditions: Rattus norvegicus, 1 min, 50% of rats fall off within 1 minute
# Protocol: Groups of 6 rats were used. The rats were placed on a rotating rod with a diameter of 3.5 cm. The rod rotated with a speed of 8 revolutions per minute. […] The dose, ED50, of the test compound as required to make 50% of the rats fall off the rod was calculated [J. Am. Pharmaceutical Association, 46, 208 (1957)].
# [3] = test system: mice; test: sleep-inducing activity, potentiation of pentobarbital sleep; type: in vivo; conditions: Mus musculus, oral, 30 minutes before pentobarbital 25 mg/kg i.p.
# Protocol: Mice, in groups of eight, were orally administered the test compound and, 30 minutes later, intraperitoneally administered 25 mg/kg of pentobarbital. The loss of righting reflex which lasted for 2 minutes or longer during the 30-minute period following pentobarbital administration was taken as an indication of sleep potentiation. The dose, ED50, of the test compound as required to achieve sleep potentiation in 50% of mice was calculated.
# [4] = target: benzodiazepine receptors; test: specific binding to benzodiazepine receptors, [3H]-diazepam displacement; conditions: [3H]diazepam 2 nM, pH 7.4, 4° C., 20 minutes
# Protocol: The compounds (I) according to the invention were tested for their affinity for benzodiazepine receptors using radioactive [^3 H]-diazepam.
# The assay for specific binding to benzodiazepine receptors was performed according to the method described in the literature (Nature, 266, 732 (1977); European J. Pharmacol., 48, 263 (1978)). Thus, a crude mitochondrial fraction obtained from the cerebral cortex of SD strain male rats aged 9 to 10 weeks was suspended in 50 mM Tris-HCl buffer (pH 7.4), followed by addition of the test drug at several concentration levels and of [^3 H]diazepam (final concentration 2 nM). Each suspension was incubated at 4° C. for 20 minutes and then filtered through a Whatman GF/B glassfiber filter, and the radioactivity of [^3 H]diazepam on the filter was measured with a liquid scintillation counter. In this manner, the IC50 value, namely the concentration of the test drug at which the [^3 H]diazepam binding was inhibited by 50%, was determined.
SMILES,IC50 [4],also measured
O=C(CC1c2ccccc2C(=O)N1c1ccc2ccc(Cl)nc2n1)N1CCC2(CC1)OCCO2 (centres unmarked) [drawing 36],–,minimal effective dose [1]: 5 mg/kg; ED50 [2]: > 80 mg/kg; ED50 [3]: > 50 mg/kg
CC1(C)COC2(CCN(C(=O)CC3c4ccccc4C(=O)N3c3ccc4ccc(Cl)nc4n3)CC2)OC1 (centres unmarked),2.4 nM,–
O=C(CC1c2ccccc2C(=O)N1c1ccc2ccc(Cl)nc2n1)N1CCC(O)CC1 (centres unmarked) [drawing 41],–,minimal effective dose [1]: > 30 mg/kg; ED50 [2]: > 80 mg/kg; ED50 [3]: 40.2 mg/kg
COC1(OC)CCN(C(=O)CC2c3ccccc3C(=O)N2c2ccc3ccc(Cl)nc3n2)CC1 (centres unmarked) [drawing 19],1.29 nM,–
O=C(CC1c2ccccc2C(=O)N1c1ccc2ccc(Cl)nc2n1)N1CCC2(CC1)OCCCO2 (centres unmarked),4.9 nM,–
COC1(OC)CCN(C(=O)CC2c3ccccc3C(=O)N2c2ccc3ccc(Cl)nc3n2)CC1 (centres unmarked) [drawing 39],–,minimal effective dose [1]: < 20 mg/kg; ED50 [2]: > 40 mg/kg; ED50 [3]: ~50 mg/kg
COc1ccc(N2C(=O)c3ccc([N+](=O)[O-])cc3C2CC(=O)N2CCC3(CC2)OCCO3)cc1 (centres unmarked),21.9 nM,–
CCC(=O)OC1CCN(C(=O)CC2c3ccccc3C(=O)N2c2ccc3ccc(Cl)nc3n2)CC1 (centres unmarked),1 nM,–
O=C(CC1c2ccccc2C(=O)N1c1ccc2ccc(Cl)nc2n1)N1CCC2(CC1)OCCO2 (centres unmarked) [drawing 17],0.38 nM,–
O=C(CC1c2ccccc2C(=O)N1c1ccc2ccc(Cl)nc2n1)N1CCC2(CC1)SCCS2 (centres unmarked),1.23 nM,–
O=C1CCN(C(=O)CC2c3ccccc3C(=O)N2c2ccc3ccc(Cl)nc3n2)CC1 (centres unmarked) [drawing 16],0.537 nM,–
O=C(CC1c2ccccc2C(=O)N1c1ccc2ccc(Cl)nc2n1)N1CCC(O)CC1 (centres unmarked) [drawing 34],0.794 nM,–
O=C(CC1c2ccccc2C(=O)N1c1ccc2ccc(Cl)nc2n1)N1CCC2(CC1)SCCCS2 (centres unmarked),0.562 nM,–
COc1ccc(N2C(=O)c3ccc(Cl)cc3C2CC(=O)N2CCC(=O)CC2)cc1 (centres unmarked),2.4 nM,–
COc1ccc(N2C(=O)c3ccc(Cl)cc3C2CC(=O)N2CCC3(CC2)OCCO3)cc1 (centres unmarked),8.71 nM,–
COc1ccc(N2C(=O)c3ccc(Cl)cc3C2CC(=O)N2CCC(=NO)CC2)cc1 (centres unmarked),3.47 nM,–
O=C(CC1c2ccccc2C(=O)N1c1ccc2ccc(Cl)nc2n1)N1CCC(=NO)CC1 (centres unmarked),0.645 nM,–
O=C1CCN(C(=O)CC2c3ccccc3C(=O)N2c2ccc3ccc(Cl)nc3n2)CC1 (centres unmarked) [drawing 38],–,minimal effective dose [1]: 20 mg/kg; ED50 [2]: > 80 mg/kg; ED50 [3]: 24.3 mg/kg
COc1ccc(N2C(=O)c3ccc([N+](=O)[O-])cc3C2CC(=O)N2CCC(=O)CC2)cc1 (centres unmarked),6.16 nM,–
COc1ccc(N2C(=O)c3ccc([N+](=O)[O-])cc3C2CC(=O)N2CCC(=NO)CC2)cc1 (centres unmarked),7.94 nM,–
CC(=O)OC1CCN(C(=O)CC2c3ccccc3C(=O)N2c2ccc3ccc(Cl)nc3n2)CC1 (centres unmarked),0.501 nM,–
